Test results taken from paper PMC6145176 (Bioorganic & medicinal chemistry, 2017).
Like-named read-outs stand apart in the source and are kept apart here. Marks after values point to notes of the source that are not given here.

Assays:
HIV wildtype (NL4-3) = assay: MAGI-CCR5 antiviral assay, HIV wildtype; assay type: cell-based; conditions: HIV wildtype (NL4-3) in MAGI-CCR5 cells; for IC50: read-out: IC50, virus NL4-3; for IC90: read-out: IC90, virus NL4-3
PBMCs = assay: PBMC cytotoxicity; assay type: cell-based, human; conditions: six days, MTS, concentration that reduces cell viability by 50%
HIV-1Ba-L = assay: MAGI-CCR5 antiviral assay; assay type: cell-based; conditions: for IC50: concentration that reduces viral replication by 50%; for IC90: read-out: MAGI-CCR5 IC90, concentration that reduces viral replication by 90%
MAGI-CCR5 cells = assay: MAGI-CCR5 parallel cytotoxicity testing; assay type: cell-based; conditions: for TC50 (A17 row) / TC50 (NL4-3 row): MAGI-CCR5 cells; for TC50 (A17 row): printed in the A17 line of Table 10; for TC50 (NL4-3 row): printed in the NL4-3 line of Tables 7 and 10; for MAGI-CCR5 TC50: uninfected MAGI-CCR5 cells, 48 h, MTS, concentration that reduces cell viability by 50%
[1] = Parallel artificial membrane permeation assay; conditions: for Papp at 100 μM: PAMPA, pH 7.2
[2] = Plasma stability in vitro assay; assay type: in vitro ADME; conditions: percent remaining after incubation for 60 min. at 37 °C, heparinized rat plasma
[3] = Microsomal stability in vitro assay; assay type: in vitro ADME; conditions: percent remaining after incubation for 60 min. at 37 °C, rat liver microsomes
[4] = target: HIV-1 reverse transcriptase (RT) (Human immunodeficiency virus type 1 group M subtype B, UniProt P04585); assay: RT biochemical assay; conditions: 10 nM HIV-1 RT, 37 °C, 1 h
[5] = read-out: MAGI-CCR5 IC50, HIV-1Ba-L in MAGI-CCR5 cells, 48 h
[6] = HIV-1Ba-L in MAGI-CCR5 cells, 48 h
[7] = Human immunodeficiency virus 1, MAGI-CCR5, 48 h, read-out: MAGI-CCR5 IC50, HIV-1Ba-L in MAGI-CCR5 cells, 48 h

Molecule: 3-Methyl-4-(2-(6-methyl-4-(1-methyl-1H-indol-2-yl)-2-oxo-1,2,3,4-tetrahydropyrimidin-5-yl)thiazol-4-yl)benzonitrile [1at]
- IC50 (HIV wildtype (NL4-3)): 0.39 ± 0.05 µM
- IC90 (HIV wildtype (NL4-3)): 4.8 ± 0.6 µM
- PBMC TC50 (PBMCs): >100 ^d μM
- IC50 (HIV-1Ba-L; [5]): 0.39 ± 0.05 µM
- IC90 (HIV-1Ba-L; [6]): 1.9 ± 0.3 µM
- TC50 (A17 row) (MAGI-CCR5 cells): >100 µM
- TC50 (NL4-3 row) (MAGI-CCR5 cells): >100 µM
- MAGI-CCR5 TC50 (MAGI-CCR5 cells): >100 µM

Molecule: 4-(2-(6-Methyl-2-oxo-4-(pyridin-2-yl)-1,2,3,4-tetrahydropyrimidin-5-yl)thiazol-4-yl)benzonitrile [1x]
- PBMC TC50 (PBMCs): >100.00 µM
- IC50 (HIV-1Ba-L; [5]): 2 ± 0.5 µM
- IC90 (HIV-1Ba-L; [6]): > 100 µM
- MAGI-CCR5 TC50 (MAGI-CCR5 cells): >100.00 µM

Molecule: 4-(2-(6-Methyl-2-oxo-4-(pyridin-3-yl)-1,2,3,4-tetrahydropyrimidin-5-yl)thiazol-4-yl)benzonitrile [1y]
- PAMPA (LogPe) ([1]; polar brain lipid membrane, predicts BBB permeability): −7.50 ± 0.10
- PBMC TC50 (PBMCs): >100.00 µM
- Plasma Stability (%) [2]: 89.42 ± 2.93%
- IC50 (HIV-1Ba-L; [5]): 2.9 ± 0.1 µM
- IC90 (HIV-1Ba-L; [6]): > 100 µM
- MAGI-CCR5 TC50 (MAGI-CCR5 cells): >100.00 µM
- Microsomal Stability (%) [3]: 75.55 ± 7.86%

Molecule: 4-(2-(6-Methyl-2-oxo-4-(pyridin-4-yl)-1,2,3,4-tetrahydropyrimidin-5-yl)thiazol-4-yl)benzonitrile [1z]
- PBMC TC50 (PBMCs): >100.00 µM
- IC50 (HIV-1Ba-L; [5]): 1.4 ± 0.4 µM
- IC90 (HIV-1Ba-L; [6]): > 100 µM
- MAGI-CCR5 TC50 (MAGI-CCR5 cells): >100.00 µM

Molecule: 4-(2-(6-Methyl-2-oxo-4-(quinolin-2-yl)-1,2,3,4-tetrahydropyrimidin-5-yl)thiazol-4-yl)benzonitrile [1aa]
- PBMC TC50 (PBMCs): 68.3 ± 22.1 µM
- IC50 (HIV-1Ba-L; [5]): 3.8 ± 1 µM
- IC90 (HIV-1Ba-L; [6]): 98.3 ± 1.7 µM
- MAGI-CCR5 TC50 (MAGI-CCR5 cells): >100.00 µM

Molecule: 4-(2-(6-Methyl-2-oxo-4-(quinolin-4-yl)-1,2,3,4-tetrahydropyrimidin-5-yl)thiazol-4-yl)benzonitrile [1ab]
- PBMC TC50 (PBMCs): >100.00 µM
- IC50 (HIV-1Ba-L; [5]): 1.5 ± 0.3 µM
- IC90 (HIV-1Ba-L; [6]): 12.7 ± 3.6 µM
- MAGI-CCR5 TC50 (MAGI-CCR5 cells): >100.00 µM

Molecule: CC1=C(c2nc(-c3ccc(C#N)cc3)cs2)C(c2cc3ccccc3n2C)NC(=O)N1 (stereo not shown) [1ad, 4-(2-(6-Methyl-4-(1-methyl-1H-indol-2-yl)-2-oxo-1,2,3,4-tetrahydropyrimidin-5-yl)thiazol-4-yl)benzonitrile]
- Papp at 100 μM [1]: 0.0891 ×10⁻⁶ cm/s
- IC50 (HIV-1Ba-L; [7]): 0.74 µM
- TC50 (A17 row) (MAGI-CCR5 cells): >100 µM
- TC50 (NL4-3 row) (MAGI-CCR5 cells): >100 µM

Molecule: CC1=C(c2nc(-c3ccc(C#N)cc3)cs2)C(c2ccc(F)nc2)NC(=O)N1 (stereo not shown) [1ae, 4-(2-(4-(6-Fluoropyridin-3-yl)-6-methyl-2-oxo-1,2,3,4-tetrahydropyrimidin-5-yl)thiazol-4-yl)benzonitrile]
- Papp at 100 μM [1]: 0.575 ×10⁻⁶ cm/s
- TC50 (NL4-3 row) (MAGI-CCR5 cells): >100 µM

Molecule: CC1=C(c2nc(-c3ccc(C#N)cc3)cs2)C(c2ccc(Cl)nc2)NC(=O)N1 (stereo not shown) [1ai, 4-(2-(4-(6-Chloropyridin-3-yl)-6-methyl-2-oxo-1,2,3,4-tetrahydropyrimidin-5-yl)thiazol-4-yl)benzonitrile]
- Papp at 100 μM [1]: 0.0398 ×10⁻⁶ cm/s

Molecule: CC1=C(c2nc(-c3ccc(C#N)cc3)cs2)C(c2ccc(Br)nc2)NC(=O)N1 (stereo not shown) [1am, 4-(2-(4-(6-Bromopyridin-3-yl)-6-methyl-2-oxo-1,2,3,4-tetrahydropyrimidin-5-yl)thiazol-4-yl)benzonitrile]
- Papp at 100 μM [1]: 0.0151 ×10⁻⁶ cm/s
- TC50 (NL4-3 row) (MAGI-CCR5 cells): >100 µM

Molecule: COc1ccc(C2NC(=O)NC(C)=C2c2nc(-c3ccc(C#N)cc3)cs2)cn1 (stereo not shown) [1an, 4-(2-(4-(6-Methoxypyridin-3-yl)-6-methyl-2-oxo-1,2,3,4-tetrahydropyrimidin-5-yl)thiazol-4-yl)benzonitrile]
- Papp at 100 μM [1]: 0.0562 ×10⁻⁶ cm/s
- TC50 (NL4-3 row) (MAGI-CCR5 cells): >100 µM

Molecule: CC1=C(c2nc(-c3ccc(C#N)cc3)cs2)C(c2ccc(C(F)(F)F)nc2)NC(=O)N1 (stereo not shown) [1ar, 4-(2-(6-Methyl-2-oxo-4-(6-(trifluoromethyl)pyridin-3-yl)-1,2,3,4-tetrahydropyrimidin-5-yl)thiazol-4-yl)benzonitrile]
- TC50 (NL4-3 row) (MAGI-CCR5 cells): >100 µM

Molecule: COc1ccc(-c2csc(C3=C(C)NC(=O)NC3c3cccc(O)c3)n2)cc1 (stereo not shown) [1b]
- PBMC TC50 (PBMCs): 91 ^e μM

Molecule: CC1=C(c2nc(-c3ccc(C#N)cc3)cs2)C(c2cccc(O)c2)NC(=O)N1 (stereo not shown) [1i, 4-(2-(4-(3-Hydroxyphenyl)-6-methyl-2-oxo-1,2,3,4-tetrahydropyrimidin-5-yl)thiazol-4-yl)benzonitrile]
- Papp at 100 μM [1]: 0.0145 ×10⁻⁶ cm/s
- PBMC TC50 (PBMCs): 84 ± 8.2 µM

Molecule: CC1=C(c2nc(-c3ccc(C#N)cc3)cs2)C(c2ccc(O)cc2)NC(=O)N1 (stereo not shown) [1l, 4-(2-(4-(4-Hydroxyphenyl)-6-methyl-2-oxo-1,2,3,4-tetrahydropyrimidin-5-yl)thiazol-4-yl)benzonitrile]
- Papp at 100 μM [1]: 0.0151 ×10⁻⁶ cm/s
- TC50 (NL4-3 row) (MAGI-CCR5 cells): 46 ± 6.1 µM

Molecule: COc1ccc(C2NC(=O)NC(C)=C2c2nc(-c3ccc(C#N)cc3)cs2)cc1 (stereo not shown) [1m, 4-(2-(4-(4-Methoxyphenyl)-6-methyl-2-oxo-1,2,3,4-tetrahydropyrimidin-5-yl)thiazol-4-yl)benzonitrile]
- Papp at 100 μM [1]: 0.0776 ×10⁻⁶ cm/s
- IC50 (HIV-1Ba-L; [7]): < 0.15 µM
- TC50 (NL4-3 row) (MAGI-CCR5 cells): 5.5 ± 1.0 µM

Molecule: CC1=C(c2nc(-c3ccc(C#N)cc3)cs2)C(c2ccc(Oc3ccccc3)cc2)NC(=O)N1 (stereo not shown) [1p, 4-(2-(6-Methyl-2-oxo-4-(4-phenoxyphenyl)-1,2,3,4-tetrahydropyrimidin-5-yl)thiazol-4-yl)benzonitrile]
- IC50 (HIV-1Ba-L; [7]): < 0.15 µM

Molecule: CC1=C(c2nc(-c3ccc(C#N)cc3)cs2)C(c2ccc(OCc3ccccc3)cc2)NC(=O)N1 (stereo not shown) [1q, 4-(2-(4-(4-(Benzyloxy)phenyl)-6-methyl-2-oxo-1,2,3,4-tetrahydropyrimidin-5-yl)thiazol-4-yl)benzonitrile]
- IC50 (HIV-1Ba-L; [7]): < 0.15 µM

Molecule: CC1=C(c2nc(-c3ccc(C#N)cc3)cs2)[C@@H](c2cccc(O)c2)NC(=O)N1 [(R)-1i]
- PBMC TC50 (PBMCs): >100 µM

Molecule: CC1=C(c2nc(-c3ccc(C#N)cc3)cs2)[C@H](c2cccc(O)c2)NC(=O)N1 [(S)-1i]
- PBMC TC50 (PBMCs): >100 µM
- RT biochemical IC50 (μM) ± SD [4]: Not active

Molecule: Cc1ccnc2c1NC(=O)c1cccnc1N2C1CC1 [NVP, nevirapine, reference compound]
- IC50 (HIV wildtype (NL4-3)): 0.07 ± 0.03 µM
- IC90 (HIV wildtype (NL4-3)): 0.6 ± 0.07 µM
